Assay results: patent US20260132129A1 (Genesis Therapeutics, Inc., priority 2022, published 2026)
pIC50: −log10 of the molar value.

Biological target: T1, PI3Kα H1047R (T47D cells) (Homo sapiens, UniProt P42336, H1047R)
T1 construct: endogenous in cells; host or cells: T47D cells
Assay: PI3Kα cellular assay: pAKT HTRF in T47D cells after EGF stimulation
Type: cell-based
Conditions: for pIC50: T47D cells (PI3Kα H1047R), pAKT S473 HTRF, EGF stimulation; for T47D pAKT S473 HTRF IC50 (H1047R): T47D (H1047R) selectivity over SKBR3 (WT): selectivity of T47D (H1047R) over SKBR3 (WT) pAKT IC50
Outline: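 T47D cells (PIK3CA H1047R) serum-starved 16 h, then treated 1 h at 37 °C with compound (10,000 nM top, 3-fold steps to 0.5 nM). After 10 min stimulation with 20 ng/mL EGF, cells were lysed and pAKT measured by HTRF.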

T1 sequence (P42336 whole entry H1047R): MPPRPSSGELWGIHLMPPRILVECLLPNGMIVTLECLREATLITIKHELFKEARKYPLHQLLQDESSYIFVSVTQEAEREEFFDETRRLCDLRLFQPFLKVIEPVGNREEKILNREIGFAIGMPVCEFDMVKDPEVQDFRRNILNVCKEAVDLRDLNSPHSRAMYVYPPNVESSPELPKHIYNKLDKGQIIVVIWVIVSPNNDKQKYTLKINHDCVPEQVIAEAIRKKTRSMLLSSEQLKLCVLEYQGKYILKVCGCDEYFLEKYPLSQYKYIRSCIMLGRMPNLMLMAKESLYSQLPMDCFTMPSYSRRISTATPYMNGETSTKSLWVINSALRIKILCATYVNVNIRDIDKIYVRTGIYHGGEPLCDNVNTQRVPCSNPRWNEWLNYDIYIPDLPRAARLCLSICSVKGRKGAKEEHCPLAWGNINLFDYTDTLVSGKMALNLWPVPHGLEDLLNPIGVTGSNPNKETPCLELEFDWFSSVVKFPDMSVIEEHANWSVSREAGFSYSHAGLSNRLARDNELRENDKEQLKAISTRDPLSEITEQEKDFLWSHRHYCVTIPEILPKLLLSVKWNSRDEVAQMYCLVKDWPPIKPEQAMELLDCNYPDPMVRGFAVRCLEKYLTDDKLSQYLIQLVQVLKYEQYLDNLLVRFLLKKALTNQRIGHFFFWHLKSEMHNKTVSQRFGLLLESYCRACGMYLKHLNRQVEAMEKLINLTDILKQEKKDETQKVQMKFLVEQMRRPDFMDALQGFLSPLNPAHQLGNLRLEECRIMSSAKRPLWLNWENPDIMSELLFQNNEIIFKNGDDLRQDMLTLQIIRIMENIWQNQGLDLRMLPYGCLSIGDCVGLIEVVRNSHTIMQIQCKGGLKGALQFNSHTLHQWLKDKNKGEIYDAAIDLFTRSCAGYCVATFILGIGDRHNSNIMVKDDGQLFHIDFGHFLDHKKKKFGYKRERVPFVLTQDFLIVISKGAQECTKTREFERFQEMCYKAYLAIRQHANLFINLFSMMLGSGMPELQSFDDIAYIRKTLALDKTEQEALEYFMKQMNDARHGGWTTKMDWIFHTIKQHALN
T1 sequence (P27986 whole entry partner): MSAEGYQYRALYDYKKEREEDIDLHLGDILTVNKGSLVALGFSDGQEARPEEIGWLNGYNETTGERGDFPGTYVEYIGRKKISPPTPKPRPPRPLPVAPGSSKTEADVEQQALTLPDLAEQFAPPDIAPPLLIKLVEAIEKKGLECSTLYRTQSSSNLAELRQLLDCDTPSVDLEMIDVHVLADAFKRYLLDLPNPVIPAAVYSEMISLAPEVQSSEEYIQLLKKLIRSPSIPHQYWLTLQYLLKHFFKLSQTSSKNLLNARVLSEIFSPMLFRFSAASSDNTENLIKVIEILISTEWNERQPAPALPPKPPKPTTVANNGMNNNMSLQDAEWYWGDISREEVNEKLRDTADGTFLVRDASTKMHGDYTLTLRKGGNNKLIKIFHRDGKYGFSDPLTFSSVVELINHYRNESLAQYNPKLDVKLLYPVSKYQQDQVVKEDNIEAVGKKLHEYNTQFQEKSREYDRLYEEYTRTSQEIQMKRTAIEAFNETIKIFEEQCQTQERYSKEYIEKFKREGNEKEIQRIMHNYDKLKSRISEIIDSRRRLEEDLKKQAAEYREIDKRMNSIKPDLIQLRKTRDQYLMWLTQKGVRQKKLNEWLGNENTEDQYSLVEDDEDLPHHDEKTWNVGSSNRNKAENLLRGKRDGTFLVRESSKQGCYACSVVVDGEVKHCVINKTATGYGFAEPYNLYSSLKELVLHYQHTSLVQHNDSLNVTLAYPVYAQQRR

| SMILES | pIC50 | T47D pAKT S473 HTRF IC50 (H1047R): T47D (H1047R) selectivity over SKBR3 (WT) |
| --- | --- | --- |
| Cc1cc([C@H](C)Nc2ccccc2C(=O)O)c2nc(N3C[C@H]4C[C@@H](C5CCN(S(=O)(=O)N(C)C)CC5)C[C@H]4C3)cc(=O)n2c1 [Compound 935] | – | C (C denotes ≤5-fold) |
| Cc1cc([C@H](C)Nc2ccccc2C(=O)O)c2nc(-c3cccnc3)c(C)c(=O)n2c1 [Compound 950] | < 5.70 | C (C denotes ≤5-fold) |
| Cc1cc([C@@H](C)Nc2ccccc2C(=O)C(F)(F)F)c2nc(N(C)Cc3ccccc3)c(C)c(=O)n2c1 [Compound 957] | < 5.70 | C (C denotes ≤5-fold) |
| Cc1cc([C@H](C)Nc2ccccc2C(=O)C(F)(F)F)c2nc(N3Cc4ccccc4C3)c(C)c(=O)n2c1 [Compound 958] | < 5.70 | C (C denotes ≤5-fold) |
| Cc1cc([C@H](C)Nc2ccccc2S(N)(=O)=O)c2nc(-c3ccc4c(c3)c(C)nn4C3CC3)c(C)c(=O)n2c1 [Compound 962] | < 5.70 | C (C denotes ≤5-fold) |
| Cc1cc([C@@H](C)Nc2ccccc2C(=O)O)c2nc(-c3cccc(C(F)F)c3)c(C)c(=O)n2c1 [Compound 972, (R)-2-((1-(2-(3-(difluoromethyl)phenyl)-3,7-dimethyl-4-oxo-4H-pyrido[1,2-a]pyrimidin-9-yl)ethyl)amino)benzoic acid] | > 7.00 | A (A denotes >20-fold) |
| Cc1cc([C@H](C)Nc2ccccc2C(=O)O)c2nc(-c3ccc(C#N)nc3)c(C)c(=O)n2c1 [Compound 976] | < 5.70 | C (C denotes ≤5-fold) |
| Cc1cc(C(C)Nc2cccc(C#N)c2C(=O)O)c2nc(-c3ccc4c(c3)c(C)nn4C)cc(=O)n2c1 (stereo not drawn) [Compound 981] | < 5.70 | C (C denotes ≤5-fold) |
| Cc1cc([C@H](C)Nc2ccccc2C(=O)O)c2nc(-c3ccc4c(C)cn(C)c4c3)c(C)c(=O)n2c1 [Compound 985] | < 5.70 | C (C denotes ≤5-fold) |
| Cc1cc([C@H](C)Nc2ccccc2S(N)(=O)=O)c2nc(-c3cnc4c(c3)c(C)nn4C)c(C)c(=O)n2c1 [Compound 988] | < 5.70 | C (C denotes ≤5-fold) |
| Cc1cc([C@@H](C)Nc2ccccc2S(N)(=O)=O)c2nc(-c3ccc4c(c3)c(C)cn4C3CC3)c(C)c(=O)n2c1 [Compound 995] | < 5.70 | C (C denotes ≤5-fold) |
| Cc1cc(C(C)Nc2cccc3c2S(=O)(=O)NC3=O)c2nc(N3Cc4ccccc4C3)cc(=O)n2c1 (stereo not drawn) [Compound 998] | – | C (C denotes ≤5-fold) |
| Cc1cc([C@@H](C)Nc2ccccc2C(=O)O)c2nc(-c3ccncc3)c(C)c(=O)n2c1 [Compound 1004] | < 5.70 | C (C denotes ≤5-fold) |
| Cc1cc([C@H](C)Nc2ccccc2C(=O)O)c2nc(-c3ccc4c(c3)c(C)cn4C3CCOCC3)c(C)c(=O)n2c1 [Compound 1009] | – | C (C denotes ≤5-fold) |
| Cc1cc([C@@H](C)Nc2cc[nH]c2-c2ccnnc2)c2nc(N3Cc4ccccc4C3)c(C)c(=O)n2c1 [Compound 1014] | – | C (C denotes ≤5-fold) |

Further lines, results first:

| pIC50 | T47D pAKT S473 HTRF IC50 (H1047R): T47D (H1047R) selectivity over SKBR3 (WT) | SMILES |
| --- | --- | --- |
| < 5.70 | C (C denotes ≤5-fold) | Cc1cc([C@H](C)Nc2ccccc2C(=O)O)c2nc(-c3ccc4c(C)nn(C)c4c3)c(C)c(=O)n2c1 [Compound 928] |
| < 5.70 | C (C denotes ≤5-fold) | Cc1cc(C(C)CNc2ccccc2C(=O)O)c2nc(N3CCOCC3)cc(=O)n2c1 (stereo not drawn) [Compound 929] |
| < 5.70 | C (C denotes ≤5-fold) | Cc1cc(C(C)Nc2cccc(CO)c2C(=O)O)c2nc(-c3ccc4c(c3)c(C)nn4C)cc(=O)n2c1 (stereo not drawn) [Compound 933] |
| < 5.70 | C (C denotes ≤5-fold) | C=CC(=O)Nc1cc(C(C)Nc2ccccc2C(=O)O)c2nc(N3Cc4ccccc4C3)cc(=O)n2c1 (stereo not drawn) [Compound 939] |
| < 5.70 | C (C denotes ≤5-fold) | Cc1cc([C@@H](C)Nc2cccc(CO)c2C(=O)O)c2nc(-c3ccc4c(c3)c(C)nn4C)cc(=O)n2c1 [Compound 940] |
| < 5.70 | C (C denotes ≤5-fold) | Cc1cc([C@H](C)Nc2cccc(CO)c2C(=O)O)c2nc(-c3ccc4c(c3)c(C)nn4C)cc(=O)n2c1 [Compound 941] |
| 6.30 to 7.00 | A (A denotes >20-fold) | Cc1cc([C@H](C)Nc2cccnc2-c2ccnnc2)c2nc(N3Cc4ccccc4C3)cc(=O)n2c1 [Compound 943] |
| 6.30 to 7.00 | A (A denotes >20-fold) | Cc1cc(C(C)Nc2ccccc2S(N)(=O)=O)c2nc(-c3ccc4c(c3)c(C)nn4C3CC3)c(C)c(=O)n2c1 (stereo not drawn) [Compound 944] |
| > 7.00 | A (A denotes >20-fold) | Cc1cc([C@@H](C)Nc2ccccc2C(=O)O)c2nc(-c3ccc4[nH]c(=O)sc4c3)c(C)c(=O)n2c1 [Compound 945] |
| 5.70 to 6.30 | B (B denotes 20-fold≥value>5-fold) | Cc1cc([C@H](C)Nc2ccccc2C(=O)O)c2nc(-c3ccc4[nH]c(=O)sc4c3)c(C)c(=O)n2c1 [Compound 946] |
| 5.70 to 6.30 | B (B denotes 20-fold≥value>5-fold) | Cc1cc([C@H](C)Nc2ccccc2C(=O)O)c2nc(-c3ccc(F)c(C#N)c3)c(C)c(=O)n2c1 [Compound 948] |
| 5.70 to 6.30 | B (B denotes 20-fold≥value>5-fold) | Cc1cc([C@H](C)Nc2ccccc2C(=O)O)c2nc(-c3ccnc(C4CC4)c3)c(C)c(=O)n2c1 [Compound 954] |
| 6.30 to 7.00 | A (A denotes >20-fold) | Cc1cc([C@@H](C)Nc2ccccc2S(N)(=O)=O)c2nc(-c3ccc4c(c3)c(C)nn4C3CC3)c(C)c(=O)n2c1 [Compound 961] |
| > 7.00 | A (A denotes >20-fold) | Cc1cc([C@@H](C)Nc2ccccc2C(=O)O)c2nc(-c3ccc4c(C)cn(C)c4c3)c(C)c(=O)n2c1 [Compound 984] |
| 6.30 to 7.00 | A (A denotes >20-fold) | Cc1cc(C(C)Nc2ccccc2S(N)(=O)=O)c2nc(-c3cnc4c(c3)c(C)nn4C3CC3)c(C)c(=O)n2c1 (stereo not drawn) [Compound 990] |
| 6.30 to 7.00 | A (A denotes >20-fold) | Cc1cc([C@@H](C)Nc2ccccc2S(N)(=O)=O)c2nc(-c3cnc4c(c3)c(C)nn4C3CC3)c(C)c(=O)n2c1 [Compound 991] |
| 6.30 to 7.00 | A (A denotes >20-fold) | CCc1c(-c2ccc3c(c2)c(C)cn3C)nc2c(C(C)Nc3ccccc3C(=O)O)cc(C)cn2c1=O (stereo not drawn) [Compound 1019] |
